Reference: PubChem BioAssay AID248 (DTP/NCI, 2004)
Where “and” joins values, the source holds several entries; their conditions need not be identical. Equal entries are not always repeated. Toxic doses and inconclusive results are not listed.

System: L1210 leukemia ip in BDF1 mice, survival T/C
Assay: NCI In Vivo Anticancer Drug Screen. Data for tumor model L1210 Leukemia (intraperitoneal) in B6D2F1 (BDF1) mice
Settings: higher = longer survival
Method in brief: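 Tumor was transplanted into mice, which were then dosed with test compound or vehicle alone. Survival was recorded for each group, and the treated figure was expressed relative to the control figure.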

[1] = endpoint: mean survival time, dose: 100.0 mg/kg/injection, schedule: Q01DX009 (ip), vehicle: saline with Tween-80
[2] = endpoint: mean survival time, dose: 100.0 mg/kg/injection, schedule: Q01DX001 (ip), vehicle: carboxymethylcellulose (CMC)
[3] = endpoint: mean survival time, dose: 200.0 mg/kg/injection, schedule: Q01DX001 (ip), vehicle: carboxymethylcellulose (CMC)
[4] = endpoint: mean survival time, dose: 400.0 mg/kg/injection, schedule: Q01DX001 (ip), vehicle: carboxymethylcellulose (CMC)
[5] = endpoint: mean survival time, dose: 100.0 mg/kg/injection, schedule: Q01DX009 (ip), vehicle: saline
[6] = endpoint: mean survival time, dose: 100.0 mg/kg/injection, schedule: Q04DX002 (ip), vehicle: saline with Tween-80
[7] = endpoint: mean survival time, dose: 200.0 mg/kg/injection, schedule: Q04DX002 (ip), vehicle: saline with Tween-80
[8] = endpoint: mean survival time, dose: 75.0 mg/kg/injection, schedule: Q01DX001 (ip), vehicle: saline
[9] = endpoint: mean survival time, dose: 150.0 mg/kg/injection, schedule: Q01DX001 (ip), vehicle: saline

In the case of `CC[C@@H](c1ccc(O)cc1)[C@@H](CC)c1ccc(O)cc1`, the T/C (endpoint: mean survival time, dose: 25.0 mg/kg/injection, schedule: Q01DX009 (sc), vehicle: steriod suspending solution) is reported as 100 % of control and 108 % of control, the T/C (endpoint: mean survival time, dose: 25.0 mg/kg/injection, schedule: Q01DX010 (sc), vehicle: steriod suspending solution) is reported as 101 % of control and the T/C (endpoint: mean survival time, dose: 50.0 mg/kg/injection, schedule: Q01DX009 (sc), vehicle: steriod suspending solution) is reported as 96 % of control and 100 % of control. The T/C (endpoint: mean survival time, dose: 50.0 mg/kg/injection, schedule: Q01DX010 (sc), vehicle: steriod suspending solution) was 95 % of control, the T/C (endpoint: mean survival time, dose: 100.0 mg/kg/injection, schedule: Q01DX009 (sc), vehicle: steriod suspending solution) was 96 % of control and 102 % of control and the T/C (endpoint: mean survival time, dose: 100.0 mg/kg/injection, schedule: Q01DX010 (sc), vehicle: steriod suspending solution) was 98 % of control. The T/C (endpoint: mean survival time, dose: 125.0 mg/kg/injection, schedule: Q01DX Z (ip), vehicle: carboxymethylcellulose (CMC)) was 91 % of control, the T/C (endpoint: mean survival time, dose: 200.0 mg/kg/injection, schedule: Q01DX009 (sc), vehicle: steriod suspending solution) was 93 % of control and 99 % of control and the T/C (endpoint: mean survival time, dose: 200.0 mg/kg/injection, schedule: Q01DX010 (sc), vehicle: steriod suspending solution) was 95 % of control. The T/C (endpoint: median survival time, dose: 25.0 mg/kg/injection, schedule: Q01DX009 (sc), vehicle: steriod suspending solution) was 100 % of control, the T/C (endpoint: median survival time, dose: 50.0 mg/kg/injection, schedule: Q01DX009 (sc), vehicle: steriod suspending solution) was 100 % of control and 111 % of control and the T/C (endpoint: median survival time, dose: 100.0 mg/kg/injection, schedule: Q01DX009 (sc), vehicle: steriod suspending solution) was 100 % of control and 111 % of control. The T/C (endpoint: median survival time, dose: 200.0 mg/kg/injection, schedule: Q01DX009 (sc), vehicle: steriod suspending solution) was 100 % of control.
`CN(C)C(=O)NN` was tested, and the T/C [1] was 104 % of control.
With `CC(c1ccccc1)[P+](c1ccccc1)(c1ccccc1)c1ccccc1` (centres undefined) the T/C (endpoint: mean survival time, dose: 12.5 mg/kg/injection, schedule: Q04DX002 (ip), vehicle: saline) was 106 % of control, the T/C (endpoint: mean survival time, dose: 25.0 mg/kg/injection, schedule: Q04DX002 (ip), vehicle: saline) was 111 % of control and the T/C (endpoint: mean survival time, dose: 50.0 mg/kg/injection, schedule: Q04DX002 (ip), vehicle: saline) was 97 % of control.
`O=C1C=CC(=O)C(SCCSC2=CC(=O)C(SCCSC3=CC(=O)C=CC3=O)=CC2=O)=C1` was tested, and the T/C (endpoint: mean survival time, dose: 100.0 mg/kg/injection, schedule: Q01DX001 (ip), vehicle: saline) was 98 % of control, the T/C (endpoint: mean survival time, dose: 200.0 mg/kg/injection, schedule: Q01DX001 (ip), vehicle: saline) was 101 % of control and the T/C (endpoint: mean survival time, dose: 400.0 mg/kg/injection, schedule: Q01DX001 (ip), vehicle: saline) was 95 % of control.
For `Nc1cc2c(cc1I)-c1ccc(Br)cc1C2`, the T/C [2] was 102 % of control, the T/C [3] was 107 % of control and the T/C [4] was 98 % of control.
`Cc1cccc(S(=O)(=O)F)c1` was tested, and the T/C (endpoint: mean survival time, dose: 50.0 mg/kg/injection, schedule: Q01DX009 (ip), vehicle: saline with Tween-80) was 91 % of control, the T/C [1] was 100 % of control and the T/C (endpoint: mean survival time, dose: 100.0 mg/kg/injection, schedule: Q04DX003 (ip), vehicle: acetone) was 101 % of control. The T/C (endpoint: mean survival time, dose: 200.0 mg/kg/injection, schedule: Q01DX009 (ip), vehicle: saline with Tween-80) was 88 % of control and the T/C (endpoint: mean survival time, dose: 200.0 mg/kg/injection, schedule: Q04DX003 (ip), vehicle: acetone) was 97 % of control.
For `O=C1c2ccccc2C(C(C/C(=N/O)c2ccccc2)c2ccccc2)c2ccccc21` (centres undefined), the T/C (endpoint: mean survival time, dose: 100.0 mg/kg/injection, schedule: Q04DX003 (ip), vehicle: saline with Tween-80) was 93 % of control, the T/C (endpoint: mean survival time, dose: 200.0 mg/kg/injection, schedule: Q04DX003 (ip), vehicle: saline with Tween-80) was 93 % of control and the T/C (endpoint: mean survival time, dose: 400.0 mg/kg/injection, schedule: Q04DX003 (ip), vehicle: saline with Tween-80) was 100 % of control.
`CCOC(=O)C(CC)(OC(C)=O)C(=O)CBr` (centres undefined) was tested, and the T/C (endpoint: mean survival time, dose: 75.0 mg/kg/injection, schedule: Q01DX001 (ip), vehicle: acetone) was 87 % of control.
In the case of `Nc1ccc(N(CCCl)CCN(CCCl)c2ccc(N)cc2)cc1`, the T/C (endpoint: mean survival time, dose: 0.25 mg/kg/injection, schedule: Q01DX009 (ip), vehicle: saline) is reported as 102 % of control, the T/C (endpoint: mean survival time, dose: 0.5 mg/kg/injection, schedule: Q01DX009 (ip), vehicle: saline) is reported as 109 % of control and the T/C (endpoint: mean survival time, dose: 1.0 mg/kg/injection, schedule: Q01DX009 (ip), vehicle: saline) is reported as 118 % of control. For the same molecule, the T/C (endpoint: mean survival time, dose: 1.2 mg/kg/injection, schedule: Q01DX009 (ip), vehicle: carboxymethylcellulose (CMC)) was 109 % of control, the T/C (endpoint: mean survival time, dose: 2.5 mg/kg/injection, schedule: Q01DX001 (ip), vehicle: carboxymethylcellulose (CMC)) was 106 % of control and the T/C (endpoint: mean survival time, dose: 2.5 mg/kg/injection, schedule: Q01DX009 (ip), vehicle: carboxymethylcellulose (CMC)) was 111 % of control. The T/C (endpoint: mean survival time, dose: 2.9 mg/kg/injection, schedule: Q01DX001 (ip), vehicle: carboxymethylcellulose (CMC)) was 114 % of control, the T/C (endpoint: mean survival time, dose: 2.9 mg/kg/injection, schedule: Q01DX009 (ip), vehicle: carboxymethylcellulose (CMC)) was 119 % of control and the T/C (endpoint: mean survival time, dose: 2.9 mg/kg/injection, schedule: Q01DX009 (ip), vehicle: saline) was 169 % of control. The T/C (endpoint: mean survival time, dose: 4.0 mg/kg/injection, schedule: Q01DX001 (ip), vehicle: saline) was 106 % of control, the T/C (endpoint: mean survival time, dose: 4.4 mg/kg/injection, schedule: Q01DX001 (ip), vehicle: carboxymethylcellulose (CMC)) was 119 % of control and the T/C (endpoint: mean survival time, dose: 4.4 mg/kg/injection, schedule: Q01DX009 (ip), vehicle: saline) was 159 % of control. For the same molecule, the T/C (endpoint: mean survival time, dose: 5.0 mg/kg/injection, schedule: Q01DX001 (ip), vehicle: carboxymethylcellulose (CMC)) was 115 % of control, the T/C (endpoint: mean survival time, dose: 6.0 mg/kg/injection, schedule: Q01DX001 (ip), vehicle: saline) was 122 % of control and the T/C (endpoint: mean survival time, dose: 10.0 mg/kg/injection, schedule: Q01DX001 (ip), vehicle: saline) was 111 % of control. For the same molecule, the T/C (endpoint: mean survival time, dose: 10.0 mg/kg/injection, schedule: Q01DX009 (ip), vehicle: carboxymethylcellulose (CMC)) was 106 % of control, the T/C (endpoint: mean survival time, dose: 10.0 mg/kg/injection, schedule: Q01DX009 (ip), vehicle: saline) was 105 % of control and the T/C (endpoint: mean survival time, dose: 15.0 mg/kg/injection, schedule: Q01DX001 (ip), vehicle: saline) was 117 % of control.
`CC(C(=O)O)N(C)C(=O)c1cnc2ccccc2n1` (centres undefined) was tested, and the T/C [2] was 94 % of control, the T/C (endpoint: mean survival time, dose: 100.0 mg/kg/injection, schedule: Q04DX003 (ip), vehicle: carboxymethylcellulose (CMC)) was 95 % of control and the T/C [3] was 96 % of control. For the same molecule, the T/C (endpoint: mean survival time, dose: 200.0 mg/kg/injection, schedule: Q04DX003 (ip), vehicle: carboxymethylcellulose (CMC)) was 99 % of control, the T/C [4] was 89 % of control and the T/C (endpoint: mean survival time, dose: 400.0 mg/kg/injection, schedule: Q04DX003 (ip), vehicle: carboxymethylcellulose (CMC)) was 97 % of control.
For `CNCCN(C)Cc1ccccc1`, the T/C (endpoint: mean survival time, dose: 25.0 mg/kg/injection, schedule: Q01DX009 (ip), vehicle: saline) was 101 % of control, the T/C (endpoint: mean survival time, dose: 25.0 mg/kg/injection, schedule: Q04DX003 (ip), vehicle: saline) was 106 % of control and the T/C (endpoint: mean survival time, dose: 50.0 mg/kg/injection, schedule: Q01DX009 (ip), vehicle: saline) was 97 % of control. For the same molecule, the T/C (endpoint: mean survival time, dose: 50.0 mg/kg/injection, schedule: Q04DX003 (ip), vehicle: saline) was 98 % of control, the T/C [5] was 98 % of control and the T/C (endpoint: mean survival time, dose: 100.0 mg/kg/injection, schedule: Q04DX003 (ip), vehicle: saline) was 98 % of control and 91 % of control.
In the case of `Cc1ccc2nc(-c3ccc(N)cc3)sc2c1S(=O)(=O)O`, the T/C [5] is reported as 100 % of control, the T/C (endpoint: mean survival time, dose: 100.0 mg/kg/injection, schedule: Q04DX002 (ip), vehicle: saline) is reported as 92 % of control and the T/C (endpoint: mean survival time, dose: 200.0 mg/kg/injection, schedule: Q01DX009 (ip), vehicle: saline) is reported as 96 % of control. The T/C (endpoint: mean survival time, dose: 200.0 mg/kg/injection, schedule: Q04DX002 (ip), vehicle: saline) was 105 % of control, the T/C (endpoint: mean survival time, dose: 400.0 mg/kg/injection, schedule: Q01DX009 (ip), vehicle: saline) was 110 % of control and the T/C (endpoint: mean survival time, dose: 400.0 mg/kg/injection, schedule: Q04DX002 (ip), vehicle: saline) was 99 % of control.
With `O=C(CCCO)NCCS(=O)c1ccccc1` (centres undefined) the T/C [6] was 107 % of control, the T/C [7] was 101 % of control and the T/C (endpoint: mean survival time, dose: 400.0 mg/kg/injection, schedule: Q04DX002 (ip), vehicle: saline with Tween-80) was 111 % of control.
For `O=C1NCC/C1=C\c1cc2c(cc1[N+](=O)[O-])OCO2`, the T/C (endpoint: mean survival time, dose: 50.0 mg/kg/injection, schedule: Q01DX001 (ip), vehicle: carboxymethylcellulose (CMC)) was 88 % of control, the T/C [2] was 90 % of control and the T/C [3] was 100 % of control. For the same molecule, the T/C [4] was 90 % of control.
For `O=C(O)c1ccc2c(c1)C(=O)c1ccccc1C2=O`, the T/C [6] was 105 % of control and the T/C [7] was 99 % of control.
With `CCC(CCl)NC(CC(C)C)CC(C)C` (centres undefined) the T/C [8] was 93 % of control and 98 % of control and the T/C [9] was 96 % of control and 107 % of control.
`Cc1nc(N)sc1N=Nc1cc(Br)ccc1Br` was tested, and the T/C [8] was 97 % of control and the T/C [9] was 114 % of control.
For `Cc1ccc(NC(=O)Nc2ccc(Nc3ccccc3)cc2)c([N+](=O)[O-])c1`, the T/C (endpoint: mean survival time, dose: 100.0 mg/kg/injection, schedule: Q04DX003 (ip), vehicle: Klucel (hydroxypropylcellulose) (HPC)) was 94 % of control, the T/C (endpoint: mean survival time, dose: 200.0 mg/kg/injection, schedule: Q04DX003 (ip), vehicle: Klucel (hydroxypropylcellulose) (HPC)) was 90 % of control and the T/C (endpoint: mean survival time, dose: 400.0 mg/kg/injection, schedule: Q04DX003 (ip), vehicle: Klucel (hydroxypropylcellulose) (HPC)) was 90 % of control.
